From ChEMBL document CHEMBL1909046, “DrugMatrix in vitro pharmacology data”

Columns and labels:
[1] = molecular target: Mitogen-activated protein kinase 3 (Homo sapiens, UniProt P27361); experiment: DRUGMATRIX: Protein Serine/Threonine Kinase, ERK1 enzyme inhibition (substrate: Myelin Basic Protein); set-up: species or system Escherichia coli; details: Not Active = under 50% inhibition at 10 µM
[2] = DRUGMATRIX: beta-Lactamase enzyme inhibition (substrate: Nitrocefin); set-up: species or system Bacillus cereus; details: Not Active = under 50% inhibition at 10 µM
[3] = molecular target: Substance-P receptor (Homo sapiens, UniProt P25103); assay type: cell membranes, Membrane; details: cho; also: in other assays of this panel Not Active means under 50% inhibition at 10 µM
Sequence of Substance-P receptor (P25103 whole entry): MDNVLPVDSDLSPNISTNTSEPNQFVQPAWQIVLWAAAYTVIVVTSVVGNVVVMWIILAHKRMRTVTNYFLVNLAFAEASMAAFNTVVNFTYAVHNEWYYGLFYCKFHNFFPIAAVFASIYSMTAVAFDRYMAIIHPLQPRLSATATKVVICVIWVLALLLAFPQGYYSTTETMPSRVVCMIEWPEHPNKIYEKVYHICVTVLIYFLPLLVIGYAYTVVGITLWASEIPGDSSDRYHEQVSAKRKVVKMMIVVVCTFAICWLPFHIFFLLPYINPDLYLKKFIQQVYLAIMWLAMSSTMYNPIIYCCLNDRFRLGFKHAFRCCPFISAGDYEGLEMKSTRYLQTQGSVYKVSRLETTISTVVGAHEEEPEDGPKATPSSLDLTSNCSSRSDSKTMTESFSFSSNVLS

[4] = molecular target: T1, Cytochrome P450 2A6 (Homo sapiens, UniProt P11509); details: bti-tn-5b1-4; also: in other assays of this panel Not Active means under 50% inhibition at 10 µM
T1 sequence (P11509 whole entry): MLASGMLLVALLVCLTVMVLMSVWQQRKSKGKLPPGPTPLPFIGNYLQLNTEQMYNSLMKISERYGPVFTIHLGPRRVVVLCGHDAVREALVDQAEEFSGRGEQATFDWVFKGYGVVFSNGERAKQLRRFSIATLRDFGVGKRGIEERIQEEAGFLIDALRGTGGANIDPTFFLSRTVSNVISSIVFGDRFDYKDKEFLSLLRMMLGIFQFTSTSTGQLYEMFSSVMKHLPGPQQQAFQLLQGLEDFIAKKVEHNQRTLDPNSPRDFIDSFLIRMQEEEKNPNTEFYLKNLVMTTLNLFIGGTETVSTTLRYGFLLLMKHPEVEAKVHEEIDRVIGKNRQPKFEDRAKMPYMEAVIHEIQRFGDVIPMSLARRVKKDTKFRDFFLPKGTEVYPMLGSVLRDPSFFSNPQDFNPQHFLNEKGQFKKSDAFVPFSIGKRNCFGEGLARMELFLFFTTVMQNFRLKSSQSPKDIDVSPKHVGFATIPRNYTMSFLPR

[5] = molecular target: Melanocortin receptor 5 (Homo sapiens, UniProt P33032); assay type: cell membranes, HEK293, Membrane; details: hek293; also: in other assays of this panel Not Active means under 50% inhibition at 10 µM
Sequence of Melanocortin receptor 5 (P33032 whole entry): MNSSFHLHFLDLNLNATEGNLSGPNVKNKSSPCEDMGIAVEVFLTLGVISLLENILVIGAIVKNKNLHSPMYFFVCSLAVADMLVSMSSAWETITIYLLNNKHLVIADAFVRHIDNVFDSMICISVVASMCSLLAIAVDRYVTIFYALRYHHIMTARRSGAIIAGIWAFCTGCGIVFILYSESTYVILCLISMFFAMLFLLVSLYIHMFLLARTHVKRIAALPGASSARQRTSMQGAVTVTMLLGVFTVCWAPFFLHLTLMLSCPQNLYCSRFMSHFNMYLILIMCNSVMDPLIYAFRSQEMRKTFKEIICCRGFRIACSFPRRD

[6] = molecular target: T2, Receptor-type tyrosine-protein phosphatase C (Homo sapiens, UniProt P08575); set-up: species or system Escherichia coli;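 also: inhibition of CD45 enzyme activity measured using DiFMUP as substrate; in other assays of this panel Not Active means under 50% inhibition at 10 µM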
T2 sequence (P08575 whole entry): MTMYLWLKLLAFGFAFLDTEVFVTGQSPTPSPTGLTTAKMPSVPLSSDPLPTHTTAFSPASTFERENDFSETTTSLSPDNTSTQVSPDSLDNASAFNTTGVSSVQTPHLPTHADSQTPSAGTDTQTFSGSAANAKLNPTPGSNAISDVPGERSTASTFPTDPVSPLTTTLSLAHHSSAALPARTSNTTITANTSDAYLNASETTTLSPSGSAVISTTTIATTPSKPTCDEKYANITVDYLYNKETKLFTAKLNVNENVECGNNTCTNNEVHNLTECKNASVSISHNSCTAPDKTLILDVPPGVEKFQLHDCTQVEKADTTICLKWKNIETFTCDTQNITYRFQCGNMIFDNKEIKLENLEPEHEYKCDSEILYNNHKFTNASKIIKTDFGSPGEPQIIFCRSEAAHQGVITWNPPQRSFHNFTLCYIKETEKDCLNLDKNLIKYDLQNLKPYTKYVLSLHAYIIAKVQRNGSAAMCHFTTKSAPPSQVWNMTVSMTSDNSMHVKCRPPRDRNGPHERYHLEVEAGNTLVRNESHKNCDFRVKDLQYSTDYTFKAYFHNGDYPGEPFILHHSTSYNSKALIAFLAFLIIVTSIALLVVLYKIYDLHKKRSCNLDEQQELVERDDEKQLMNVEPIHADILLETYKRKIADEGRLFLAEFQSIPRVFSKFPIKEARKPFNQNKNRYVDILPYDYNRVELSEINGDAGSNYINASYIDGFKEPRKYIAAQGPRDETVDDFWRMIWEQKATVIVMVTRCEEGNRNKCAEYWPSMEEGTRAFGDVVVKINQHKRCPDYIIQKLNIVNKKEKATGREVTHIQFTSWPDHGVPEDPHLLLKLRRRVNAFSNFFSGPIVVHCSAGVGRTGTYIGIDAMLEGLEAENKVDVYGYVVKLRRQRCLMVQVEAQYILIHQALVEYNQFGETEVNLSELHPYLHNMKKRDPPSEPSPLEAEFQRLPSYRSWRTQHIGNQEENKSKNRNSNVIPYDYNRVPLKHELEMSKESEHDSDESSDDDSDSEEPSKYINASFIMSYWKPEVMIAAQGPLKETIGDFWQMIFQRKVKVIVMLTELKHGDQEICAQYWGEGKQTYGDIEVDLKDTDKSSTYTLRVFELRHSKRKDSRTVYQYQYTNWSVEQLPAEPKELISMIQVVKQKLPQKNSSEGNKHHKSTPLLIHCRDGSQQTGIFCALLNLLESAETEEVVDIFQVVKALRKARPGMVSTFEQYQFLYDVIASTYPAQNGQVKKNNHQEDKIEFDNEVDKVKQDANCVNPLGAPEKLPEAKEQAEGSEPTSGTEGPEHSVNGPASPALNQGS

[7] = molecular target: T3, Glucocorticoid receptor (Homo sapiens, UniProt P04150); details: hela s3; also: in other assays of this panel Not Active means under 50% inhibition at 10 µM
T3 sequence (P04150 whole entry): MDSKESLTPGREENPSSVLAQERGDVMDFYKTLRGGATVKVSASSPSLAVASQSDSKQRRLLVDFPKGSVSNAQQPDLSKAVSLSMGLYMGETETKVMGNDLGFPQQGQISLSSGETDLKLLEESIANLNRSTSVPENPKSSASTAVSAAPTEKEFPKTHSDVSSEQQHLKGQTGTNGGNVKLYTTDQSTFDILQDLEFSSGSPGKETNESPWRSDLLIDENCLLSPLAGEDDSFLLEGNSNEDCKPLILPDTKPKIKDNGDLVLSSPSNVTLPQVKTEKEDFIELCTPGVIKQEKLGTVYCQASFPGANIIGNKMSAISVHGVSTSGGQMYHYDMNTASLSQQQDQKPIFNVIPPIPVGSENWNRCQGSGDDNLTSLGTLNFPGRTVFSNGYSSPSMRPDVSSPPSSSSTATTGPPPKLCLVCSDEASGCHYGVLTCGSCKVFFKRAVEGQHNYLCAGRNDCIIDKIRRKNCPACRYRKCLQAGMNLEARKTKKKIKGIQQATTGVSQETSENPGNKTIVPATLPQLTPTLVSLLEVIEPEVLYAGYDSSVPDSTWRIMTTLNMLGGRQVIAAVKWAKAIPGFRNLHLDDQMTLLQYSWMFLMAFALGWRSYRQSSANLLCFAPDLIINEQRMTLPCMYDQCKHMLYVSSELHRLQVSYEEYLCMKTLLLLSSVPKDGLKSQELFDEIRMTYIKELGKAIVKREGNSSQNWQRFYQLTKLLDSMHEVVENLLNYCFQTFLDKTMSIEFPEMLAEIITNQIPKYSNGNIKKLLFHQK

[8] = molecular target: Vascular endothelial growth factor receptor 1 (Homo sapiens, UniProt P17948); experiment: biochemical; assay type: cell-based, HUVEC; details: huvec; also: in other assays of this panel Not Active means under 50% inhibition at 10 µM
Sequence of Vascular endothelial growth factor receptor 1 (P17948 whole entry): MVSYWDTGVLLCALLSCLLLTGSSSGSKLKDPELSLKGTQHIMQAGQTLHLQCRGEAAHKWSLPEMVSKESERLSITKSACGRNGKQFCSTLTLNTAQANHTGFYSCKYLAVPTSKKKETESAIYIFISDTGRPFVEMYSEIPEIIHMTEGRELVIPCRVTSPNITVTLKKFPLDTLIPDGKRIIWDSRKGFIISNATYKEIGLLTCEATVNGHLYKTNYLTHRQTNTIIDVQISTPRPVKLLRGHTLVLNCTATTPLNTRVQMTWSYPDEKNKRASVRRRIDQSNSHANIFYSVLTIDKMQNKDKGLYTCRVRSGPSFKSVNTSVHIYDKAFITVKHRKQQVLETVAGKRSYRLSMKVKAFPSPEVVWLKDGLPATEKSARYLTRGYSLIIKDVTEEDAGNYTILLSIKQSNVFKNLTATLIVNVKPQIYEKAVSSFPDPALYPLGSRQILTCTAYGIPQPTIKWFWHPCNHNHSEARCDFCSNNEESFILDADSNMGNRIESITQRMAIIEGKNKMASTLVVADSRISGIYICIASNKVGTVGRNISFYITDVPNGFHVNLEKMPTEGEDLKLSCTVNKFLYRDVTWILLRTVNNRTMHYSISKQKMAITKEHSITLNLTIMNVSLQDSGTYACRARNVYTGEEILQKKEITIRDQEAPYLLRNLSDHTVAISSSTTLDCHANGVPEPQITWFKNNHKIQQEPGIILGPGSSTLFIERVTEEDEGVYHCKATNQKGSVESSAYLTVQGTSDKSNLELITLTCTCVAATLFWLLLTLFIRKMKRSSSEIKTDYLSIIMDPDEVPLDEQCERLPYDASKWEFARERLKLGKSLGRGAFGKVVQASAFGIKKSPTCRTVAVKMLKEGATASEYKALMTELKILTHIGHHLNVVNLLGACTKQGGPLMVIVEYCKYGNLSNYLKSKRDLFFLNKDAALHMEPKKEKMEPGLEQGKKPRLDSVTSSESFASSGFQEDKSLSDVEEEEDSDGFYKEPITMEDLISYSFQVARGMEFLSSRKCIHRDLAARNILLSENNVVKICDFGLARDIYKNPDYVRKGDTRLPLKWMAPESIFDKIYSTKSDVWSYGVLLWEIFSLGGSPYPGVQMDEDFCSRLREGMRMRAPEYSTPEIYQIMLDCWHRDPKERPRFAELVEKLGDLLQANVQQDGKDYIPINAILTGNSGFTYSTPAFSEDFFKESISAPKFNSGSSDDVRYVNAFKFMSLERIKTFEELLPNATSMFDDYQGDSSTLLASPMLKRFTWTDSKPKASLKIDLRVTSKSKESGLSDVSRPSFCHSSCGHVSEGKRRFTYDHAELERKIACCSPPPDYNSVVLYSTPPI

Sequence of Mitogen-activated protein kinase 3 (P27361 whole entry): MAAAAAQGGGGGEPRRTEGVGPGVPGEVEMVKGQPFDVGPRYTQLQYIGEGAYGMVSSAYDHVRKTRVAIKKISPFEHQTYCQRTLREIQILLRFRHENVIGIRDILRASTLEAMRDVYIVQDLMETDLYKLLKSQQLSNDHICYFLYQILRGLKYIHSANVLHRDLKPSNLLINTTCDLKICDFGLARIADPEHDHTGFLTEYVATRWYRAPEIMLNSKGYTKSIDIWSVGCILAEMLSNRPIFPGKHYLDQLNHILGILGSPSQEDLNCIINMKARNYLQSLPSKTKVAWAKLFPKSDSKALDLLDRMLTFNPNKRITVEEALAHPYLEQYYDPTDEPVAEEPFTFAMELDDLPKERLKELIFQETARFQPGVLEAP

CC[C@H](C)C(=O)O[C@H]1C[C@H](O)C=C2C=C[C@H](C)[C@H](CC[C@@H](O)C[C@@H](O)CC(=O)O)[C@H]21 [PRAVASTATIN]
Not Active: IC50 [1] | IC50 [2] | Ki [2] | IC50 [3] | IC50 [4] | Ki [4] | IC50 [5] | IC50 [6] | IC50 [7] | IC50 [8]

CC(C)(Sc1cc(C(C)(C)C)c(O)c(C(C)(C)C)c1)Sc1cc(C(C)(C)C)c(O)c(C(C)(C)C)c1 [PROBUCOL]
Not Active: IC50 [1] | IC50 [2] | Ki [2] | IC50 [3] | IC50 [4] | Ki [4] | IC50 [5] | IC50 [6] | IC50 [7] | IC50 [8]

COBALT(II) ACETYLACETONATE
Not Active: IC50 [1] | Ki [1] | IC50 [2] | Ki [2] | IC50 [3] | Ki [3] | IC50 [4] | Ki [4] | IC50 [5] | Ki [5] | IC50 [6] | Ki [6] | IC50 [7] | Ki [7] | IC50 [8] | Ki [8]

INSULIN HUMAN
Not Active: IC50 [1] | Ki [1] | IC50 [2] | Ki [2] | IC50 [3] | Ki [3] | IC50 [4] | Ki [4] | IC50 [5] | Ki [5] | IC50 [6] | Ki [6] | IC50 [7] | Ki [7] | IC50 [8] | Ki [8]

POLYVINYL ALCOHOL
Not Active: IC50 [1] | Ki [1] | IC50 [2] | Ki [2] | IC50 [3] | Ki [3] | IC50 [4] | Ki [4] | IC50 [5] | Ki [5] | IC50 [6] | Ki [6] | IC50 [7] | Ki [7] | IC50 [8] | Ki [8]
